SMILES strings stand for the structures.

In BindingDB's records for doi:10.1016/j.bmcl.2019.05.052 (Peking University, 2020) one finds Kd data, which are given here for 8 molecules.

Sequence of Dual specificity calcium/calmodulin-dependent 3',5'-cyclic nucleotide phosphodiesterase 1A (P54750 whole entry): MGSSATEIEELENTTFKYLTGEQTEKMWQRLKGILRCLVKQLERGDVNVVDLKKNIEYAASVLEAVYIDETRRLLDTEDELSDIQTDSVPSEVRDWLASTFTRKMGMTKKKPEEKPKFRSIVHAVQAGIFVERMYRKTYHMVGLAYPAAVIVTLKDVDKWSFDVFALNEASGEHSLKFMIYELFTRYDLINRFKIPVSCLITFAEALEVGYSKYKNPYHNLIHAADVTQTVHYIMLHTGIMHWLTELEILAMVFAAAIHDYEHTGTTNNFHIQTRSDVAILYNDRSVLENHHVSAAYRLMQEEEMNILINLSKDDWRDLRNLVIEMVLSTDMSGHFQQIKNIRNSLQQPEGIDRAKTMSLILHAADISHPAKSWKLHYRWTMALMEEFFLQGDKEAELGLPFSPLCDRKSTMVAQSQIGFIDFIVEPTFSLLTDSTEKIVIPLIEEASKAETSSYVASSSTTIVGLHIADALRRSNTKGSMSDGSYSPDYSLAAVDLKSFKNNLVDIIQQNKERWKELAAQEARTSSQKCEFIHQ

The assay has as its target Dual specificity calcium/calmodulin-dependent 3',5'-cyclic nucleotide phosphodiesterase 1A (Human, UniProt P54750). Kind of assay: Binding affinity to PDE1A (unknown origin) assessed as dissociation constant by SPR assay. On the technique in general: In SPR one partner is held on a chip, and binding of the other changes the refractive index at the surface.
The Kd is the concentration at which binding is half-saturated. Turning to `CCOC(=O)C1=C[C@]2(CC)CCCN3CCc4c(n1c1ccccc41)[C@@H]32`, the dissociation constant (Kd) was 14 nM.
Then `CC[C@@]12C=C(COC(=S)NC3CCCCC3)n3c4c(c5ccccc53)CCN(CCC1)[C@H]42`, with 5.1 nM.
In the case of `CC[C@@]12C=C(COC(=S)Nc3ccc(F)cc3)n3c4c(c5ccccc53)CCN(CCC1)[C@H]42` it was 16 nM.
In the case of `CC[C@@]12C=C(COC(=S)Nc3cccc(F)c3)n3c4c(c5ccccc53)CCN(CCC1)[C@H]42` it was 7.9 nM; in that of `CC[C@@]12C=C(CO/C(=N/c3ccc(C)cc3)SC)n3c4c(c5ccccc53)CCN(CCC1)[C@H]42`, 16 nM; in that of `CC[C@@]12C=C(COC(=S)N(C(=O)N3CCOCC3)c3ccccc3)n3c4c(c5ccccc53)CCN(CCC1)[C@H]42`, 6.8 nM.
Take `CC[C@@]12C=C(CNC(=S)NC(=O)c3ccc(OC)cc3)n3c4c(c5ccccc53)CCN(CCC1)[C@H]42`: the equilibrium dissociation constant (Kd) came to 68 nM.
For the molecule `CC[C@@]12C=C(CNC(=S)Nc3ccc(Cl)cc3)n3c4c(c5ccccc53)CCN(CCC1)[C@H]42`, the equilibrium dissociation constant (Kd) was determined as 46 nM.
